Assay results: patent US20210161837A1, “METHODS FOR TREATING CANCER WITH RORGAMMA INHIBITORS” (The Regents of the University of California, priority 2016, published 2021)

Legend:
MCF-7-C6 = test: Growth and survival of radiation-resistant breast cancer cells; assay type: cell-based, human; conditions: radiation-resistant MCF-7-C6
CRPC cells = test: Growth inhibition of CRPC cells compared with enzalutamide; assay type: cell-based, human
Procedure: Data shown are mean percentage of apoptotic cells±s.d. […] Data shown are mean±s.d. Significance was calculated using Student's t-test. *p<0.05, **p<0.01.
(§1) (a&b) C4-2B and 22Rv1 cell proliferation after the RORγ antagonist treatment. Cells were seeded in 6-well plates and counted after cells were treated with indicated concentrations of RORγ antagonists for 0, 2, 4 and 6 days by Coulter counter. […] (e) representative images of TUNEL positive cells treated with vehicle or the antagonist (5 μM) in 22Rv1 cells are shown. […] Three days later, cells were harvested for immunoblotting with indicated antibodies.
(§2) LNCaP, C4-2B, 22Rv, PC-3, and PC346C prostate cancer cells were cultured in RPMI1640, VCaP, HEK293T and human fibroblast IMR90 cells were in DMEM, LAPC-4 was in Iscove's MEM (all from Corning), and RWPE-1 and PZ-HPV-7 were in Keratinocyte Serum Free Medium (K-SFM) (Invitrogen) with the supplements. All the culture media except for RWPE-1 and PZ-HPV-7 were supplemented with 10% FBS (Hyclone) except indicated otherwise. For experiments, C4-2B cells were cultured in RPMI supplemented with 9% cds-FBS plus 1% regular FBS (to mimic the CRPC condition) unless indicated otherwise and 22Rv1 cells were cultured in RPMI supplemented with 10% cds-FBS. Cells were grown at 37° C. in 5% CO2 incubators. LNCaP, VCaP, 22Rv1, PC-3, 293T, IMR90, PZ-HPV-7 and RWPE-1 were from ATCC. […]

[1] = system: AR-positive PCa cell models including 22Rv1, VCaP, LNCaP, LAPC4 and PC346C; test: Growth inhibition in other AR-positive PCa cell models; assay type: cell-based, human
Procedure: as §1
as §2, with “ATCC. C4-2B was from UroCor Inc. (Oklahoma City, Okla.).” for “ATCC.”

AR and AR-V7 expression = test: Immunoblotting and qRT-PCR of AR and AR-V7 expression in C4-2B and VCaP cells; assay type: cell-based, human
Procedure: Data shown are mean±s.d. Significance was calculated using Student's t-test. *p<0.05, **p<0.01.
(§3) Total RNA was isolated from cells in 6-well or 10-cm plates or from xenograft tumors, and the cDNA was prepared, amplified and measured in the presence of SYBR as described in Yang, P., et al., Molecular and cellular biology 32, 3121-3131 (2012). Briefly, the fluorescent values were collected and a melting curve analysis was performed. Fold difference was calculated as described previously Yang, P., et al. (see, id). The experiments were performed at least three times with data presented as mean values±s.d. Cell lysates were analyzed by immunoblotting with antibodies specifically recognizing RORγ, AR, AR-V7 and the indicated proteins.

[2] = system: endogenous AR expression in RWPE1 and PZ-HPV7 cells; test: Immunoblotting of AR expression in non-malignant prostate epithelial cells; assay type: cell-based, human
Procedure: Immunoblotting analysis of RORγ and AR expression in non-malignant, human prostate epithelial RWPE1 and PZ-HPV7 cells within indicated treatments is shown.
as §3

MCF-7-TamR = test: Growth and survival of tamoxifen-resistant breast cancer cells; assay type: cell-based, human
LNCaP cells = test: Cell viability (CellTiter-GLO), 4 days; assay type: cell-based; conditions: Homo sapiens, read-out: inhibitory potency (growth inhibition)
Procedure: as §1
LNCaP, C4-2B, 22Rv, PC-3, and PC346C prostate cancer cells were cultured in RPMI1640, VCaP, HEK293T and human fibroblast IMR90 cells were in DMEM, LAPC-4 was in Iscove's MEM (all from Corning), and RWPE-1 and PZ-HPV-7 were in Keratinocyte Serum Free Medium (K-SFM) (Invitrogen) with the supplements. All the culture media except for RWPE-1 and PZ-HPV-7 were supplemented with 10% FBS (Hyclone) except indicated otherwise. […]
For cell viability, cells were seeded in 96-well plates at 1500-2500 cells per well (optimum density for growth, depending on the specific cell line) in a total volume of 100 μl media. […] After 4 days of incubation, Cell-Titer GLO reagents (Promega) were added and luminescence was measured on GLOMAX microplate luminometer (Promega), according to the manufacturer's instructions. […] The estimated in vitro IC50 values were calculated using GraphPad Prism 6 software.

[3] = system: prostate cancer C4-2B cells; test: Cell viability (Cell-Titer GLO), 4 days, prostate cancer cells; assay type: cell-based, human
Procedure: The “No.” label for each compound corresponds to the “Structure No.” in Table 2 (e.g., “No. 36”=“Structure No. 36” in Table 2). Experiments were independently performed three times.
(§4) For cell viability, cells were seeded in 96-well plates at 1500-2500 cells per well (optimum density for growth, depending on the specific cell line) in a total volume of 100 μl media. Serially diluted compounds in 100 μl of media were added to the cells 12 hours later. After 4 days of incubation, Cell-Titer GLO reagents (Promega) were added and luminescence was measured on GLOMAX microplate luminometer (Promega), according to the manufacturer's instructions. All experimental points were set up as sextuplicate as biological replication and the entire experiments were repeated three times. The data are presented as percentage of viable cells with vehicle treated cells set as 100. The estimated in vitro IC50 values were calculated using GraphPad Prism 6 software.

[4] = system: lung cancer cells (A427, Calu1, A549, H23, H358, H1666, HCC827, PC-9, H69, H209); test: Cell viability (CellTiter-GLO), 4 days, lung cancer cells; assay type: cell-based; conditions: Homo sapiens, 96 h, NSCLC and SCLC lung cancer cells
Excerpt: All those cells are derived from human tumors of non-small cell lung carcinoma (NSCLC).

RORγ = target: T1, RORγ (Homo sapiens, UniProt P51449); test: RORγ transcriptional activity, reporter gene assay in 293T cells with Gal4-RORγ LBD expression vectors; assay type: cell-based; conditions: read-out: EC50, inhibition of RORγ constitutive activity
T1 construct: reporter gene assay in 293T cells with Gal4-RORγ LBD expression vectors; expressed in transfected cells; host or cells: 293T cells
Procedure: The 2-([1,1′-biphenyl]-4-yl)-1,1,1,3,3,3-hexafluoropropan-2-ol group of SR2211 was kept, while the amide group of the GSK agonist was chosen as linker. FIG. 2B illustrates RORγ transcriptional activity measured by reporter gene assay in 293T cells with Gal4-RORγ LBD expression vectors. EC50 values are reported as means±s.d. for ≥8 separate titrations from 10 μM. In vitro binding to the ligand binding domain (LBD) was measured by AlphaScreen and by thermal shift assay (TSA).
For example, the phenyl group in the middle likely forms a π-π interaction with the side chain of Phe378 of the LBD, while the amide group can form a direct hydrogen bond with Phe377. The nitro group and hydroxyl group at the two ends may form hydrogen bonds with Glu379 and His479, respectively.

[5] = system: gastric cancer KATO III cells; test: Cell viability (Cell-Titer GLO), 4 days, gastric cancer cells; assay type: cell-based, human
Procedure: Experiments were independently performed three times.
as §4, with “100.” for “100. The estimated in vitro IC50 values were calculated using GraphPad Prism 6 software.”

T1 sequence (P51449 269-508 limits assumed): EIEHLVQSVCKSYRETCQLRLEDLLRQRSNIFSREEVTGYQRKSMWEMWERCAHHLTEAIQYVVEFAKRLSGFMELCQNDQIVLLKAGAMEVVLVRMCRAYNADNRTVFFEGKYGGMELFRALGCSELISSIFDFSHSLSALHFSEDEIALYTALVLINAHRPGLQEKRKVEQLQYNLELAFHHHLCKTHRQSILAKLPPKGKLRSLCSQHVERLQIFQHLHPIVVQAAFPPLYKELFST

Structure (SMILES): O=C(Cc1ccccc1[N+](=O)[O-])Nc1ccc(-c2ccc(C(O)(C(F)(F)F)C(F)(F)F)cc2F)cc1 [XY018, N-(2′-fluoro-4′-(1,1,1,3,3,3-hexafluoro-2-hydroxypropan-2-yl)-[1,1′-biphenyl]-4-yl)-2-(2-nitrophenyl)acetamide]
- inhibition of growth and survival (MCF-7-C6): potently inhibiting the growth and survival
- growth inhibition, potency relative to enzalutamide (CRPC cells): strong growth inhibition with much higher potencies than that of enzalutamide
- growth inhibition [1]: strong growth inhibition
- AR and AR-V7 expression (AR and AR-V7 expression): inhibited by XY018 in dose-dependent manner
- effect on endogenous AR expression in non-malignant cells [2]: did not have any significant effect
- growth inhibitory effect of tamoxifen in combination with XY018 (MCF-7-TamR; MCF-7-TamR, tamoxifen plus XY018): synergistic growth inhibitory effect
- inhibition of growth and survival (MCF-7-TamR; tamoxifen-resistant MCF-7-TamR, XY018 alone): potently inhibiting the growth and survival
- IC50 (LNCaP cells): 2100 nM
- inhibition of growth and survival [3]: strongly inhibited the growth and survival
- IC50 [4]: 3300 to 9000 nM
- EC50 (RORγ): 190 nM
- inhibition of growth and survival [5]: strongly inhibited the growth and survival
